Results as given in PMC11565046, “Rational design of 2H-chromene-based antiphytovirals that inhibit virion assembly by outcompeting virus capsid-RNA interactions” (iScience, 2024).
Like-named read-outs stand apart in the source and are kept apart here.

How the values were obtained:
[1] = system: PVY; experiment: Inactivating activity against PVY, half-leaf method on Chenopodium amaranticolor; format: in vivo, potato virus Y; settings: for EC50: Potato virus Y, in Chenopodium amaranticolor
Procedure: (§1) According to previous reports,[46] PVY was infested in Nicotiana tabacum K326, and PVY was harvested and purified after showing severe infection symptoms on the leaves. The literature-guided protocol was followed to assess the curative, prophylactic, and […] potential of the target compounds under investigation.[15]
Target compound solution (1,000 μg/mL) and 2 × virus solution were combined in equal quantities and incubated for 30 min. Evenly distribute emery onto the leaf blades, and apply the mixture of virus and compound solution onto the right side of C. amaranticolor leaf blades. Following this, an identical quantity of a 1× virus solution was applied to the untreated side of the leaf. Following a duration of 1.5 h, the emery residue present on the leaf surface was removed using a rinsing process utilizing water. The plants were incubated within a controlled greenhouse environment, maintaining a consistent temperature of 25°C. After 5−7 days, they proceeded to statistics the number of necrotic spots on the leaves. For each chemical, triplicate experiments were undertaken, and the average percentage of inhibition was subsequently determined.

[2] = target: T1, PVY CP^S125A (Potato virus Y, UniProt Q02963, S2919A); experiment: MST assay for affinity with mutant PVY CP^S125A; settings: 25.0°C, read-out: Kd for binding to PVY CP^S125A
T1 construct: 6xHis (N, cleaved yes); S-tag (N, cleaved yes); thioredoxin (Trx, from pET-32a); made in house; host or cells: E. coli BL21 (DE3)
T1 sequence (Q02963 2795-3061 S2919A): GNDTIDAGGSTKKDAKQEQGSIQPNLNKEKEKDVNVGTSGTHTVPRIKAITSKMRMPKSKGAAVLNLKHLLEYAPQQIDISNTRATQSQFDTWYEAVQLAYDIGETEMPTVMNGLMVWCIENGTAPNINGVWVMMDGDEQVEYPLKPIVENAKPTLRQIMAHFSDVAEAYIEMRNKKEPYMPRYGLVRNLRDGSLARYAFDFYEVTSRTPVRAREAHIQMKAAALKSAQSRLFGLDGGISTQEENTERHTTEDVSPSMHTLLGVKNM

[3] = target: PVY CP^wt (Potato virus Y, UniProt A0A650FPI8); experiment: MST assay for affinity with PVY CP^wt; format: binding
Text: Microscale thermophoresis (MST) serves as a potent technique for quantifying the strength of interactions occurring between small molecules and their respective ligands.[19]^,[20] The binding strength between specific target drugs and PVY CP^wt was investigated in vitro using MST, as depicted in Figures 5G and S3. This experimental approach aimed to acquire insights into how target compounds exert their influences against PVY. […] Similarly, the affinity of target compounds for interacting with PVY CP^S125A was tested.
The PVY CP^wt gene, the wild-type variant of the Potato Virus Y coat protein, was cloned into the pET-32a (+) prokaryotic expression vector. This recombinant vector was then thermally transformed into BL21 (DE3) bacterial host cells for subsequent protein expression. The strains above were cultivated on a liquid Luria-Bertani medium (180 rpm, 37°C). To initiate the expression of PVY CP, isopropyl β-D-1-thiogalactopyranoside (IPTG) was added to the culture medium at a concentration of […] when the optical density at 600 nm (OD600) reached a range between 0.6 and 0.8. This step triggered the production of the PVY CP protein. The induction process was maintained for 10 h (180 rpm, 16°C). The 6 × -His-S-tagged PVY CP^wt were purified using nickel-nitriloacetic acid by high-performance column affinity chromatography. Subsequently, enterokinase was employed to digest the proteins, and the desired target proteins were isolated using His-tag purification resin. Ultimately, the proteins were identified through the employment of a 12% sodium dodecyl sulfate-polyacrylamide gel electrophoresis method. The pET-32a (+) plasmid containing the PVY CP^wt gene was used as a template. […] The mutant protein was purified using the method for the purification of PVY CP^wt, which was PVY CP^S125A.
The proteins' binding affinity with target chemicals was evaluated using a Monolith NT.115 instrument (Nano Temper, Munich, Germany), utilizing established methods described in literature.[35]^,[48] A concentration of 2.0 mM was selected for the chemicals, and the proteins were tagged with the Monolith TM RED-NHS second-generation labeling kit. The MST assay analyzed the fluorescence intensity of the labeled proteins, focusing on a range from 400 to 1200 to investigate their interactions. The scanning method was conducted using an “LED power” setting of 40% and a temperature that was maintained at 25.0°C.

[4] = system: PVY; experiment: Curative activity against PVY, half-leaf method on Chenopodium amaranticolor; format: in vivo; settings: Potato virus Y, in Chenopodium amaranticolor; 500 μg/mL; Chenopodium amaranticolor leaves; average of three replicates
Text: as §1
To assess the curative effectiveness against PVY, a uniform layer of 200–300 mesh emery was applied to the leaves of C. amaranticolor, followed by rubbing with a virus solution. For 1.5 h, then the emery was washed off with water. After the leaves naturally dried, a 500 μg/mL solution of the test compound was carefully applied to one side of the leaf, while the opposite side received a 1% Tween 80 solution as a control. The plants were subsequently incubated in a greenhouse maintained at 25°C. After 5−7 days, the presence of necrotic spots on the leaves was recorded, with each compound tested on three replicate plants. The average inhibition rate was determined by analyzing the data from these replications.

[5] = system: PVY; experiment: Protective activity against PVY, half-leaf method on Chenopodium amaranticolor; format: in vivo; settings: Potato virus Y, in Chenopodium amaranticolor; 500 μg/mL; Chenopodium amaranticolor leaves; average of three replicates
Procedure: as §1
A 500 μg/mL solution of the targeted compound was delicately applied to one side of C. amaranticolor leaves, while the other side was treated with a 1% Tween 80 aqueous solution. The plants were positioned in a greenhouse set at 25°C. Following a 24 h period, the entire leaf surface was inoculated with PVY by uniformly distributing 200–300 mesh emery. After 1.5 h, the emery was washed off with water, and the plants were returned to the greenhouse. After 5–7 days, the number of necrotic spots was tallied, with the assessment based on the greenhouse population. Each compound was tested in triplicate, and the average inhibition rate was subsequently calculated.

[6] = system: PVY-GFP; experiment: Systemic infection of PVY-GFP in Nicotiana benthamiana (UV fluorescence, RT-qPCR); format: in vivo, potato virus Y; settings: 500 μg/mL spray, 7 dpai; for Green fluorescence under UV light: N. benthamiana, versus DMSO control; for PVY RNA accumulation level (control normalized as 100%): systemic leaves of N. benthamiana, RT-qPCR
Text: To evaluate the effect of C50 on PVY infection, we infiltrated the Nicotiana benthamiana plants with Agrobacterium carrying the PVY infectious clone pCamPVY-GFP. […] The RT-qPCR results for GFP were consistent with that of PVY RNA (Figure 3D).
The Nicotiana benthamiana plants were subjected to infestation by Agrobacterium tumefaciens, which carried either pCamPVY-GFP or an empty vector (mock). […] At 7 dpai, the leaves of N. benthamiana were looked at for the GFP using a LUYOR UV light (Shanghai, China), and captured in photographs. The foliage was gathered, rapidly frozen with liquid nitrogen, and subsequently preserved in a refrigerator set at a temperature of −80°C.
Leaf blades of Nicotiana benthamiana were pulverized into fine powder with the aid of liquid nitrogen, followed by the extraction of total RNA from the leaf tissue utilizing Trizol reagent (Invitrogen, California, USA). Subsequently, cDNA synthesis was conducted through reverse transcription with primers and a reverse transcription kit (Vazyme, Nanjing, China). Any potential DNA contamination was effectively removed using a gDNA wipe enzyme (Vazyme, Nanjing, China) as per the manufacturer’s guidelines. RT-qPCR analysis was carried out employing TB Green (TaKaRa, Beijing, China). Detailed information regarding the primers utilized in this investigation can be found in Table S2.

[7] = Chenopodium amaranticolor leaves, read-out: EC50 for inactivating activity
[8] = inactivating activity, Table S1, read-out: Experimental pEC50 (converted)

Structure (SMILES) | EC50 [1, 7] | EC50 [1, 8] | melting point | Kd [2] | Kd [3] | inhibition at 500 µg/mL [4] | inhibition at 500 µg/mL [5] | Green fluorescence under UV light [6] | PVY RNA accumulation level (control normalized as 100%) [6] | EC50 for inactivating activity ([1]; Chenopodium amaranticolor leaves) | EC50 ([1]; read-out: EC50 for inactivating activity, Chenopodium amaranticolor leaves)
CC1(C)C=Cc2c(ccc(/C=N/c3ccc(NS(=O)(=O)c4ccc(Cl)cc4)cc3)c2O)O1 [Compound C6, (E)-4-chloro-N-(4-(((5-hydroxy-2,2-dimethyl-2H-chromen-6-yl)methylene)amino)phenyl) benzenesulfonamide] | 56.7 ± 4.2 µg/mL | 121 µM | 139 to 141 °C | 312 ± 40.3 µM | 4.4 µM |  |  |  |  |  | 
Cc1cccc(S(=O)(=O)Nc2ccc(/N=C/c3ccc4c(c3O)C=CC(C)(C)O4)cc2)c1 [Compound C27] | 90.3 ± 7.1 µg/mL | 202 µM | 152 to 154 °C |  |  | 60 to 70% | 60 to 70% |  |  |  | 
CC1(C)C=Cc2c(ccc(/C=N/c3ccc(NS(=O)(=O)Cc4ccccc4)cc3)c2O)O1 [Compound C28] | 503 ± 12.8 µg/mL | 1120 µM | 143 to 145 °C |  |  | 60 to 70% | 60 to 70% |  |  |  | 
CC(C)=CCCC1(C)C=Cc2c(ccc(/C=N/c3ccc(NS(=O)(=O)c4ccc(C)cc4)cc3)c2O)O1 (stereo not drawn) [Compound C42] | 503 ± 17 µg/mL | 975 µM | 95 to 97 °C |  | 497 µM |  |  |  |  |  | 
Cc1ccc(S(=O)(=O)Nc2ccc(/N=C/c3ccc4c(c3O)C=CC(C)(C)O4)cc2)cc1 [Compound C50] | 53.3 ± 4.3 µg/mL | 119 µM | 127 to 129 °C | 125 µM | 1.6 µM | 60 to 70% | 60 to 70% | noteworthy decrease in green fluorescence | 18.9% |  | 
CNCC(=O)N[C@@H](CO)C(=O)N[C@H]1[C@H](O)[C@@H](O)[C@H](n2ccc(N)nc2=O)O[C@@H]1C(N)=O [NNM, Ningnanmycin, reference compound] |  |  |  |  | 8.6 µM |  |  | noteworthy decrease in green fluorescence | 51.8% | 75.7 ± 4.0 µg/mL | 73.7 µg/mL

Second part, led by results:

EC50 [1, 7] | EC50 [1, 8] | melting point | Structure (SMILES) | Kd [2] | Kd [3] | inhibition at 500 µg/mL [4] | inhibition at 500 µg/mL [5] | Green fluorescence under UV light [6] | PVY RNA accumulation level (control normalized as 100%) [6] | EC50 for inactivating activity ([1]; Chenopodium amaranticolor leaves) | EC50 ([1]; read-out: EC50 for inactivating activity, Chenopodium amaranticolor leaves)
682 ± 10 µg/mL | 1650 µM | 132 to 134 °C | CCCCS(=O)(=O)Nc1ccc(/N=C/c2ccc3c(c2O)C=CC(C)(C)O3)cc1 [Compound C29] |  |  | 60 to 70% | 60 to 70% |  |  |  | 
88.3 ± 4 µg/mL | 188 µM | 191 to 193 °C | CC1(C)C=Cc2c(ccc(/C=N/c3ccc(NS(=O)(=O)c4c(F)cccc4F)cc3)c2O)O1 [Compound C32] |  |  | 60 to 70% | 60 to 70% |  |  |  | 
147 ± 8.3 µg/mL | 288 µM | 158 to 160 °C | CC1(C)C=Cc2c(ccc(/C=N/c3ccc(NS(=O)(=O)c4ccc(Br)cc4)cc3)c2O)O1 [Compound C34] |  |  | 60 to 70% | 60 to 70% |  |  |  | 
557 ± 14.3 µg/mL | 1190 µM | 189 to 191 °C | CC1(C)C=Cc2c(ccc(/C=N/c3ccc(NS(=O)(=O)c4cccc(Cl)c4)cc3)c2O)O1 [Compound C36] |  |  | 60 to 70% | 60 to 70% |  |  |  | 
306 ± 11 µg/mL | 631 µM | 193 to 195 °C | CC1(C)C=Cc2c(ccc(/C=N/c3ccc(NS(=O)(=O)c4cccc(Cl)c4F)cc3)c2O)O1 [Compound C37] |  |  | 60 to 70% | 60 to 70% |  |  |  | 
410 ± 9.7 µg/mL | 851 µM | 193 to 195 °C | Cc1c(Cl)cccc1S(=O)(=O)Nc1ccc(/N=C/c2ccc3c(c2O)C=CC(C)(C)O3)cc1 [Compound C38] |  |  | 60 to 70% | 60 to 70% |  |  |  | 
